Test results from patent publication US6737383B1, “Herbicidal oxadiazolidines” (priority 1999, dated 2004).

Assays:
bedstraw = test: Test B pre/postemergence bedstraw; assay type: in vivo, Galium aparine
In short: (§1)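 Response is a visual 0-to-10 score relative to untreated plants, where 0 means no effect and 10 means complete control, taken twelve to sixteen days after application. Treatments went onto soil at planting and onto foliage of 1- to 4-leaf plants, using a surfactant-containing non-phytotoxic solvent.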

blackgrass [1] = test: Test B pre/postemergence blackgrass; assay type: in vivo, Alopecurus myosuroides
In short: as §1

soybean = test: Test B pre/postemergence soybean; assay type: in vivo, Glycine max
In short: as §1

velvetleaf = test: Test B pre/postemergence velvetleaf; assay type: in vivo, Abutilon theophrasti
In short: as §1

winter wheat [2] = test: Test E winter wheat; assay type: in vivo, Triticum aestivum; settings: Postemergence; for Plant response rating, Wheat (winter): 0 to 100 scale
In short: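 Visual evaluation versus untreated controls after about 21 to 28 days in the greenhouse. Compound was in a surfactant-containing non-phytotoxic solvent; postemergence plants were treated at the 1- to 4-leaf stage, grown in a 60:40 sandy loam and potting mix blend.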

blackgrass [3] = test: Test E blackgrass; assay type: in vivo, Alopecurus myosuroides; settings: Preemergence; for Blackgrass plant response rating (0 to 100 scale): Rate 250 g/ha
green foxtail = test: Test E green foxtail; assay type: in vivo, Setaria viridis; settings: Preemergence; for Green foxtail plant response rating (0 to 100 scale): Rate 250 g/ha
Italian ryegrass = test: Test E Italian ryegrass; assay type: in vivo, Lolium multiflorum; settings: Preemergence; for I. Ryegrass plant response rating (0 to 100 scale): Rate 250 g/ha
winter wheat [4] = test: Test E winter wheat; assay type: in vivo, Triticum aestivum; settings: Preemergence; for Wheat (winter) plant response rating (0 to 100 scale): Rate 250 g/ha
wild oat = test: Test E wild oat; assay type: in vivo, Avena fatua; settings: Preemergence; for Wild oat plant response rating (0 to 100 scale): Rate 250 g/ha
winter barley = test: Test E winter barley; assay type: in vivo, Hordeum vulgare; settings: Preemergence; for Barley (winter) plant response rating (0 to 100 scale): Rate 250 g/ha
[5] = Postemergence, Rate 125 g/ha, scale of 0 to 10 where 0 is no effect and 10 is complete control
[6] = Preemergence, Rate 62 g/ha, scale of 0 to 10 where 0 is no effect and 10 is complete control
[7] = Preemergence, Rate 125 g/ha, 0 is no effect, 10 is complete control
[8] = Preemergence, Rate 500 g/ha, scale 0 to 10 (0 no effect, 10 complete control)
[9] = Rate 62 g/ha, Postemergence, scale of 0 to 10 where 0 is no effect and 10 is complete control
[10] = Rate 250 g/ha, Postemergence, scale 0 to 10, 0 is no effect, 10 is complete control
[11] = Preemergence, Rate 250 g/ha, scale 0 to 10, 0 is no effect, 10 is complete control
[12] = Rate 500 g/ha, Postemergence, scale 0 to 10
[13] = Rate 500 g/ha, 0 is no effect, 100 is complete control
[14] = Rate 500 g/ha, 0 to 100 scale where 0 is no effect and 100 is complete control
[15] = Rate 1000 g/ha, 0 to 100 scale where 0 is no effect and 100 is complete control
[16] = Preemergence, Rate 250 g/ha, scale of 0 to 10 where 0 is no effect and 10 is complete control
[17] = Preemergence, Rate 500 g/ha, scale of 0 to 10 where 0 is no effect and 10 is complete control
[18] = Rate 62 g/ha, Postemergence, scale 0 to 10 (0 no effect, 10 complete control)
[19] = Rate 125 g/ha, Postemergence, scale of 0 to 10 where 0 is no effect and 10 is complete control
[20] = Rate 125 g/ha, Preemergence, scale of 0 to 10 where 0 is no effect and 10 is complete control
[21] = Rate 250 g/ha, Postemergence, scale of 0 to 10 where 0 is no effect and 10 is complete control
[22] = Rate 500 g/ha, Postemergence, scale 0 to 10, 0 no effect, 10 complete control
[23] = Rate 125 g/ha, 0 is no effect, 100 is complete control
[24] = Rate 125 g/ha, 0 to 100 scale (0 no effect, 100 complete control)
[25] = Rate 500 g/ha, 0 to 100 scale (0 no effect, 100 complete control)
[26] = Rate 125 g/ha, Postemergence, scale 0 to 10

CC(C)N(C(=O)n1oc(=O)n([C@@H](C)c2ccccc2)c1=O)c1ccc(Cl)cc1 [Compound 174]
Bedstraw plant response rating (bedstraw; [5]): 4 | Bedstraw plant response rating (bedstraw; [6]): 0 | Bedstraw plant response rating (0 to 10 scale) (bedstraw; [7]): 0 | Bedstraw plant response rating (bedstraw; [8]): 3 | Bedstraw plant response rating (bedstraw; [9]): 0 | Plant response rating, Bedstraw (bedstraw; [10]): 6 | Blackgrass plant response rating (blackgrass [1]; [5]): 0 | Blackgrass plant response rating (blackgrass [1]; [6]): 0 | Blackgrass plant response rating (0 to 10 scale) (blackgrass [1]; [7]): 2 | Blackgrass plant response rating (blackgrass [1]; [11]): 2 | Blackgrass plant response rating (blackgrass [1]; [8]): 2 | Blackgrass plant response rating (blackgrass [1]; [9]): 0 | Plant response rating, Blackgrass (blackgrass [1]; [10]): 0 | Blackgrass plant response rating (blackgrass [1]; [12]): 3 | Soybean plant response rating (soybean; [5]): 2 | Soybean plant response rating (soybean; [6]): 0 | Soybean plant response rating (0 to 10 scale) (soybean; [7]): 0 | Soybean plant response rating (soybean; [11]): 0 | Soybean plant response rating (soybean; [8]): 0 | Soybean plant response rating (soybean; [9]): 2 | Plant response rating, Soybean (soybean; [10]): 2 | Soybean plant response rating (soybean; [12]): 4 | Velvetleaf plant response rating (velvetleaf; [6]): 0 | Velvetleaf plant response rating (0 to 10 scale) (velvetleaf; [7]): 0 | Velvetleaf plant response rating (velvetleaf; [11]): 0 | Velvetleaf plant response rating (velvetleaf; [8]): 0 | Plant response rating, Velvetleaf (velvetleaf; [10]): 0 | Velvetleaf plant response rating (velvetleaf; [12]): 0 | Plant response rating, Wheat (winter) (winter wheat [2]; Rate 1000 g/ha, 0 is no effect and 100 is complete control): 50 | Plant response rating, Wheat (winter) (winter wheat [2]; [13]): 40 | Blackgrass plant response rating (0 to 100 scale) (blackgrass [3]): 30 | Plant response rating, Blackgrass (blackgrass [3]; [14]): 50 | Plant response rating, Blackgrass (blackgrass [3]; [15]): 55 | Green foxtail plant response rating (0 to 100 scale) (green foxtail): 30 | Plant response rating, Green foxtail (green foxtail; [14]): 50 | Plant response rating, Green foxtail (green foxtail; [15]): 85 | I. Ryegrass plant response rating (0 to 100 scale) (Italian ryegrass): 0 | Plant response rating, I. Ryegrass (Italian ryegrass; [14]): 20 | Plant response rating, I. Ryegrass (Italian ryegrass; [15]): 40 | Wheat (winter) plant response rating (0 to 100 scale) (winter wheat [4]): 60 | Plant response rating, Wheat (winter) (winter wheat [4]; [14]): 50 | Plant response rating, Wheat (winter) (winter wheat [4]; [15]): 40 | Wild oat plant response rating (0 to 100 scale) (wild oat): 50 | Plant response rating, Wild oat (wild oat; [14]): 40 | Plant response rating, Wild oat (wild oat; [15]): 50 | Barley (winter) plant response rating (0 to 100 scale) (winter barley): 0 | Plant response rating, Barley (winter) (winter barley; [14]): 0 | Plant response rating, Barley (winter) (winter barley; [15]): 10

COCn1c(=O)on(C(=O)N(c2ccc(F)cc2)C(C)C)c1=O [Compound 293]
Bedstraw plant response rating (bedstraw; [6]): 0 | Bedstraw plant response rating (bedstraw; [16]): 0 | Plant response rating, Bedstraw (bedstraw; [17]): 0 | Bedstraw plant response rating (bedstraw; [18]): 0 | Bedstraw plant response rating (bedstraw; [19]): 2 | Bedstraw plant response rating (bedstraw; [20]): 0 | Plant response rating, Bedstraw (bedstraw; [21]): 3 | Bedstraw plant response rating (bedstraw; [22]): 9 | Blackgrass plant response rating (blackgrass [1]; [6]): 7 | Blackgrass plant response rating (blackgrass [1]; [16]): 9 | Plant response rating, Blackgrass (blackgrass [1]; [17]): 9 | Blackgrass plant response rating (blackgrass [1]; [18]): 5 | Blackgrass plant response rating (blackgrass [1]; [19]): 9 | Blackgrass plant response rating (blackgrass [1]; [20]): 7 | Plant response rating, Blackgrass (blackgrass [1]; [21]): 9 | Blackgrass plant response rating (blackgrass [1]; [22]): 9 | Soybean plant response rating (soybean; [6]): 0 | Soybean plant response rating (soybean; [16]): 2 | Plant response rating, Soybean (soybean; [17]): 2 | Soybean plant response rating (soybean; [18]): 1 | Soybean plant response rating (soybean; [19]): 2 | Soybean plant response rating (soybean; [20]): 0 | Plant response rating, Soybean (soybean; [21]): 2 | Velvetleaf plant response rating (velvetleaf; [6]): 4 | Velvetleaf plant response rating (velvetleaf; [16]): 7 | Plant response rating, Velvetleaf (velvetleaf; [17]): 8 | Velvetleaf plant response rating (velvetleaf; [18]): 0 | Velvetleaf plant response rating (velvetleaf; [19]): 2 | Velvetleaf plant response rating (velvetleaf; [20]): 4 | Plant response rating, Velvetleaf (velvetleaf; [21]): 2 | Plant response rating, Wheat (winter) (winter wheat [2]; [23]): 50 | Wheat (winter) plant response rating (winter wheat [2]; Rate 250 g/ha, 0 to 100 scale where 0 is no effect and 100 is complete control): 30 | Plant response rating, Wheat (winter) (winter wheat [2]; [13]): 50 | Plant response rating, Blackgrass (blackgrass [3]; [24]): 40 | Plant response rating, Blackgrass (blackgrass [3]; [25]): 50 | Plant response rating, Green foxtail (green foxtail; [24]): 55 | Green foxtail plant response rating (0 to 100 scale) (green foxtail): 70 | Plant response rating, Green foxtail (green foxtail; [25]): 60 | Plant response rating, I. Ryegrass (Italian ryegrass; [24]): 30 | I. Ryegrass plant response rating (0 to 100 scale) (Italian ryegrass): 50 | Plant response rating, I. Ryegrass (Italian ryegrass; [25]): 50 | Plant response rating, Wheat (winter) (winter wheat [4]; [24]): 40 | Wheat (winter) plant response rating (0 to 100 scale) (winter wheat [4]): 50 | Plant response rating, Wheat (winter) (winter wheat [4]; [25]): 55 | Plant response rating, Wild oat (wild oat; [24]): 0 | Wild oat plant response rating (0 to 100 scale) (wild oat): 10 | Plant response rating, Wild oat (wild oat; [25]): 50 | Plant response rating, Barley (winter) (winter barley; [24]): 40 | Barley (winter) plant response rating (0 to 100 scale) (winter barley): 40 | Plant response rating, Barley (winter) (winter barley; [25]): 50

CC(=O)OCCCCn1c(=O)on(C(=O)N(c2ccc(F)cc2)C(C)C)c1=O [Compound 211]
Bedstraw plant response rating (bedstraw; [6]): 0 | Bedstraw plant response rating (bedstraw; [16]): 0 | Plant response rating, Bedstraw (bedstraw; [17]): 10 | Bedstraw plant response rating (bedstraw; [9]): 4 | Bedstraw plant response rating (bedstraw; [26]): 7 | Bedstraw plant response rating (bedstraw; [20]): 0 | Bedstraw plant response rating (bedstraw; [12]): 8 | Blackgrass plant response rating (blackgrass [1]; [6]): 6 | Blackgrass plant response rating (blackgrass [1]; [16]): 9 | Plant response rating, Blackgrass (blackgrass [1]; [17]): 9 | Blackgrass plant response rating (blackgrass [1]; [9]): 2 | Blackgrass plant response rating (blackgrass [1]; [26]): 3 | Blackgrass plant response rating (blackgrass [1]; [20]): 9 | Plant response rating (0 to 10; 0 is no effect, 10 is complete control), Blackgrass (blackgrass [1]; Rate 250 g/ha, Postemergence): 4 | Blackgrass plant response rating (blackgrass [1]; [12]): 4 | Soybean plant response rating (soybean; [6]): 0 | Soybean plant response rating (soybean; [16]): 0 | Plant response rating, Soybean (soybean; [17]): 0 | Soybean plant response rating (soybean; [9]): 3 | Soybean plant response rating (soybean; [26]): 4 | Soybean plant response rating (soybean; [20]): 0 | Plant response rating (0 to 10; 0 is no effect, 10 is complete control), Soybean (soybean; Rate 250 g/ha, Postemergence): 4 | Soybean plant response rating (soybean; [12]): 4 | Velvetleaf plant response rating (velvetleaf; [6]): 0 | Velvetleaf plant response rating (velvetleaf; [16]): 0 | Plant response rating, Velvetleaf (velvetleaf; [17]): 0 | Velvetleaf plant response rating (velvetleaf; [9]): 0 | Velvetleaf plant response rating (velvetleaf; [26]): 0 | Velvetleaf plant response rating (velvetleaf; [20]): 0 | Plant response rating (0 to 10; 0 is no effect, 10 is complete control), Velvetleaf (velvetleaf; Rate 250 g/ha, Postemergence): 1 | Plant response rating, Wheat (winter) (winter wheat [2]; [23]): 20 | Plant response rating, Wheat (winter) (winter wheat [2]; [13]): 40 | Plant response rating, Blackgrass (blackgrass [3]; [24]): 0 | Blackgrass plant response rating (0 to 100 scale) (blackgrass [3]): 0 | Plant response rating, Blackgrass (blackgrass [3]; [14]): 50 | Plant response rating, Green foxtail (green foxtail; [24]): 0 | Green foxtail plant response rating (0 to 100 scale) (green foxtail): 10 | Plant response rating, Green foxtail (green foxtail; [14]): 20 | I. Ryegrass plant response rating (0 to 100 scale) (Italian ryegrass): 0 | Plant response rating, I. Ryegrass (Italian ryegrass; [14]): 10 | Plant response rating, Wheat (winter) (winter wheat [4]; [24]): 50 | Wheat (winter) plant response rating (0 to 100 scale) (winter wheat [4]): 35 | Plant response rating, Wheat (winter) (winter wheat [4]; [14]): 30 | Plant response rating, Wild oat (wild oat; [24]): 20 | Plant response rating, Wild oat (wild oat; [14]): 40 | Plant response rating, Barley (winter) (winter barley; [24]): 10 | Barley (winter) plant response rating (0 to 100 scale) (winter barley): 20 | Plant response rating, Barley (winter) (winter barley; [14]): 10
